Numbers after ± are expanded uncertainties.
Test: activity coefficient (dimensionless); of the first substance listed, at infinite dilution; xn = mol fraction of the nth substance listed
Conditions: 332.85 K; 101 kPa; Liquid; Chromatography; x1 = 0

| Compound | activity coefficient |
| --- | --- |
| CCCO [propan-1-ol] + CCCCCC[n+]1ccn(C)c1.FC(F)(F)C(F)(F)[P-](F)(F)(F)(C(F)(F)C(F)(F)F)C(F)(F)C(F)(F)F | 1.96 ± 0.13 |
| CC(C)O [propan-2-ol] + CCCCCC[n+]1ccn(C)c1.FC(F)(F)C(F)(F)[P-](F)(F)(F)(C(F)(F)C(F)(F)F)C(F)(F)C(F)(F)F | 1.62 ± 0.11 |
| CCC=O [propanal] + CCCCCC[n+]1ccn(C)c1.FC(F)(F)C(F)(F)[P-](F)(F)(F)(C(F)(F)C(F)(F)F)C(F)(F)C(F)(F)F | 0.283 ± 0.03 |
| c1ccncc1 [pyridine] + CCCCCC[n+]1ccn(C)c1.FC(F)(F)C(F)(F)[P-](F)(F)(F)(C(F)(F)C(F)(F)F)C(F)(F)C(F)(F)F | 0.326 ± 0.032 |
| ClC(Cl)(Cl)Cl [tetrachloromethane] + CCCCCC[n+]1ccn(C)c1.FC(F)(F)C(F)(F)[P-](F)(F)(F)(C(F)(F)C(F)(F)F)C(F)(F)C(F)(F)F | 2.08 ± 0.14 |
| c1ccsc1 [thiophene] + CCCCCC[n+]1ccn(C)c1.FC(F)(F)C(F)(F)[P-](F)(F)(F)(C(F)(F)C(F)(F)F)C(F)(F)C(F)(F)F | 0.602 ± 0.042 |
| Cc1ccccc1 [toluene] + CCCCCC[n+]1ccn(C)c1.FC(F)(F)C(F)(F)[P-](F)(F)(F)(C(F)(F)C(F)(F)F)C(F)(F)C(F)(F)F | 0.727 ± 0.048 |
| ClC(Cl)Cl [trichloromethane] + CCCCCC[n+]1ccn(C)c1.FC(F)(F)C(F)(F)[P-](F)(F)(F)(C(F)(F)C(F)(F)F)C(F)(F)C(F)(F)F | 1.09 ± 0.069 |

Same assay, conditions: 333.15 K; 101 kPa; Liquid; Chromatography; x1 = 0

| Compound | activity coefficient |
| --- | --- |
| CCCCCCCC [octane] + CCCCCCCCCCn1cc[n+](CCCCCCCCCC)c1C.O=S(=O)([N-]S(=O)(=O)C(F)(F)F)C(F)(F)F | 2.48 ± 0.17 |
| CCCC(C)=O [pentan-2-one] + CCCCCCCCCCn1cc[n+](CCCCCCCCCC)c1C.O=S(=O)([N-]S(=O)(=O)C(F)(F)F)C(F)(F)F | 0.404 ± 0.034 |
| CCC(=O)CC [pentan-3-one] + CCCCCCCCCCn1cc[n+](CCCCCCCCCC)c1C.O=S(=O)([N-]S(=O)(=O)C(F)(F)F)C(F)(F)F | 0.378 ± 0.033 |
| CCCO [propan-1-ol] + CCCCCCCCCCn1cc[n+](CCCCCCCCCC)c1C.O=S(=O)([N-]S(=O)(=O)C(F)(F)F)C(F)(F)F | 1.16 ± 0.074 |
| CC(C)O [propan-2-ol] + CCCCCCCCCCn1cc[n+](CCCCCCCCCC)c1C.O=S(=O)([N-]S(=O)(=O)C(F)(F)F)C(F)(F)F | 1.14 ± 0.073 |
| c1ccncc1 [pyridine] + CCCCCCCCCCn1cc[n+](CCCCCCCCCC)c1C.O=S(=O)([N-]S(=O)(=O)C(F)(F)F)C(F)(F)F | 0.331 ± 0.032 |
| ClC(Cl)(Cl)Cl [tetrachloromethane] + CCCCCCCCCCn1cc[n+](CCCCCCCCCC)c1C.O=S(=O)([N-]S(=O)(=O)C(F)(F)F)C(F)(F)F | 0.777 ± 0.051 |
| c1ccsc1 [thiophene] + CCCCCCCCCCn1cc[n+](CCCCCCCCCC)c1C.O=S(=O)([N-]S(=O)(=O)C(F)(F)F)C(F)(F)F | 0.423 ± 0.035 |
| Cc1ccccc1 [toluene] + CCCCCCCCCCn1cc[n+](CCCCCCCCCC)c1C.O=S(=O)([N-]S(=O)(=O)C(F)(F)F)C(F)(F)F | 0.52 ± 0.039 |
| ClC(Cl)Cl [trichloromethane] + CCCCCCCCCCn1cc[n+](CCCCCCCCCC)c1C.O=S(=O)([N-]S(=O)(=O)C(F)(F)F)C(F)(F)F | 0.395 ± 0.034 |

Same assay, conditions: 342.75 K; 101 kPa; Liquid; Chromatography; x1 = 0

| Compound | activity coefficient |
| --- | --- |
| CCCCCCCC [octane] + CCCCn1cc[n+](C)c1.O=S(=O)([N-]S(=O)(=O)C(F)(F)C(F)(F)F)C(F)(F)C(F)(F)F | 17.3 ± 1.2 |
| CCCC(C)=O [pentan-2-one] + CCCCn1cc[n+](C)c1.O=S(=O)([N-]S(=O)(=O)C(F)(F)C(F)(F)F)C(F)(F)C(F)(F)F | 0.686 ± 0.046 |
| CCC(=O)CC [pentan-3-one] + CCCCn1cc[n+](C)c1.O=S(=O)([N-]S(=O)(=O)C(F)(F)C(F)(F)F)C(F)(F)C(F)(F)F | 0.656 ± 0.045 |
| CCCO [propan-1-ol] + CCCCn1cc[n+](C)c1.O=S(=O)([N-]S(=O)(=O)C(F)(F)C(F)(F)F)C(F)(F)C(F)(F)F | 1.62 ± 0.11 |
| CC(C)O [propan-2-ol] + CCCCn1cc[n+](C)c1.O=S(=O)([N-]S(=O)(=O)C(F)(F)C(F)(F)F)C(F)(F)C(F)(F)F | 1.46 ± 0.096 |
| CCC=O [propanal] + CCCCn1cc[n+](C)c1.O=S(=O)([N-]S(=O)(=O)C(F)(F)C(F)(F)F)C(F)(F)C(F)(F)F | 0.533 ± 0.039 |
| c1ccncc1 [pyridine] + CCCCn1cc[n+](C)c1.O=S(=O)([N-]S(=O)(=O)C(F)(F)C(F)(F)F)C(F)(F)C(F)(F)F | 0.429 ± 0.035 |
| ClC(Cl)(Cl)Cl [tetrachloromethane] + CCCCn1cc[n+](C)c1.O=S(=O)([N-]S(=O)(=O)C(F)(F)C(F)(F)F)C(F)(F)C(F)(F)F | 2.35 ± 0.16 |
| CCCCCCCCCCCCCC [tetradecane] + CCCCn1cc[n+](C)c1.O=S(=O)([N-]S(=O)(=O)C(F)(F)C(F)(F)F)C(F)(F)C(F)(F)F | 113 ± 7.7 |
| c1ccsc1 [thiophene] + CCCCn1cc[n+](C)c1.O=S(=O)([N-]S(=O)(=O)C(F)(F)C(F)(F)F)C(F)(F)C(F)(F)F | 0.973 ± 0.061 |
| Cc1ccccc1 [toluene] + CCCCn1cc[n+](C)c1.O=S(=O)([N-]S(=O)(=O)C(F)(F)C(F)(F)F)C(F)(F)C(F)(F)F | 1.42 ± 0.093 |
| ClC(Cl)Cl [trichloromethane] + CCCCn1cc[n+](C)c1.O=S(=O)([N-]S(=O)(=O)C(F)(F)C(F)(F)F)C(F)(F)C(F)(F)F | 0.74 ± 0.049 |

Same assay, conditions: 343.15 K; 101 kPa; Liquid; Chromatography; x1 = 0

| Compound | activity coefficient |
| --- | --- |
| CCCCCCCC [octane] + CCCCCCCCCCn1cc[n+](CCCCCCCCCC)c1C.O=S(=O)([N-]S(=O)(=O)C(F)(F)F)C(F)(F)F | 2.45 ± 0.17 |
| CCCC(C)=O [pentan-2-one] + CCCCCCCCCCn1cc[n+](CCCCCCCCCC)c1C.O=S(=O)([N-]S(=O)(=O)C(F)(F)F)C(F)(F)F | 0.407 ± 0.034 |
| CCC(=O)CC [pentan-3-one] + CCCCCCCCCCn1cc[n+](CCCCCCCCCC)c1C.O=S(=O)([N-]S(=O)(=O)C(F)(F)F)C(F)(F)F | 0.386 ± 0.033 |
| CCCO [propan-1-ol] + CCCCCCCCCCn1cc[n+](CCCCCCCCCC)c1C.O=S(=O)([N-]S(=O)(=O)C(F)(F)F)C(F)(F)F | 1.06 ± 0.067 |
| CC(C)O [propan-2-ol] + CCCCCCCCCCn1cc[n+](CCCCCCCCCC)c1C.O=S(=O)([N-]S(=O)(=O)C(F)(F)F)C(F)(F)F | 1.03 ± 0.065 |
| c1ccncc1 [pyridine] + CCCCCCCCCCn1cc[n+](CCCCCCCCCC)c1C.O=S(=O)([N-]S(=O)(=O)C(F)(F)F)C(F)(F)F | 0.334 ± 0.032 |
| ClC(Cl)(Cl)Cl [tetrachloromethane] + CCCCCCCCCCn1cc[n+](CCCCCCCCCC)c1C.O=S(=O)([N-]S(=O)(=O)C(F)(F)F)C(F)(F)F | 0.777 ± 0.051 |
| c1ccsc1 [thiophene] + CCCCCCCCCCn1cc[n+](CCCCCCCCCC)c1C.O=S(=O)([N-]S(=O)(=O)C(F)(F)F)C(F)(F)F | 0.424 ± 0.035 |
| Cc1ccccc1 [toluene] + CCCCCCCCCCn1cc[n+](CCCCCCCCCC)c1C.O=S(=O)([N-]S(=O)(=O)C(F)(F)F)C(F)(F)F | 0.527 ± 0.039 |
| ClC(Cl)Cl [trichloromethane] + CCCCCCCCCCn1cc[n+](CCCCCCCCCC)c1C.O=S(=O)([N-]S(=O)(=O)C(F)(F)F)C(F)(F)F | 0.402 ± 0.034 |

Same assay, conditions: 354.65 K; 101 kPa; Liquid; Chromatography; x1 = 0

| Compound | activity coefficient |
| --- | --- |
| CCCCCCCC [octane] + CCCCCC[n+]1ccn(C)c1.FC(F)(F)C(F)(F)[P-](F)(F)(F)(C(F)(F)C(F)(F)F)C(F)(F)C(F)(F)F | 8.87 ± 0.6 |
| CCCC(C)=O [pentan-2-one] + CCCCCC[n+]1ccn(C)c1.FC(F)(F)C(F)(F)[P-](F)(F)(F)(C(F)(F)C(F)(F)F)C(F)(F)C(F)(F)F | 0.311 ± 0.031 |
| CCC(=O)CC [pentan-3-one] + CCCCCC[n+]1ccn(C)c1.FC(F)(F)C(F)(F)[P-](F)(F)(F)(C(F)(F)C(F)(F)F)C(F)(F)C(F)(F)F | 0.301 ± 0.031 |
| CCCO [propan-1-ol] + CCCCCC[n+]1ccn(C)c1.FC(F)(F)C(F)(F)[P-](F)(F)(F)(C(F)(F)C(F)(F)F)C(F)(F)C(F)(F)F | 1.47 ± 0.096 |
| CC(C)O [propan-2-ol] + CCCCCC[n+]1ccn(C)c1.FC(F)(F)C(F)(F)[P-](F)(F)(F)(C(F)(F)C(F)(F)F)C(F)(F)C(F)(F)F | 1.26 ± 0.081 |
| CCC=O [propanal] + CCCCCC[n+]1ccn(C)c1.FC(F)(F)C(F)(F)[P-](F)(F)(F)(C(F)(F)C(F)(F)F)C(F)(F)C(F)(F)F | 0.285 ± 0.031 |
| c1ccncc1 [pyridine] + CCCCCC[n+]1ccn(C)c1.FC(F)(F)C(F)(F)[P-](F)(F)(F)(C(F)(F)C(F)(F)F)C(F)(F)C(F)(F)F | 0.331 ± 0.032 |
| ClC(Cl)(Cl)Cl [tetrachloromethane] + CCCCCC[n+]1ccn(C)c1.FC(F)(F)C(F)(F)[P-](F)(F)(F)(C(F)(F)C(F)(F)F)C(F)(F)C(F)(F)F | 1.94 ± 0.13 |
| c1ccsc1 [thiophene] + CCCCCC[n+]1ccn(C)c1.FC(F)(F)C(F)(F)[P-](F)(F)(F)(C(F)(F)C(F)(F)F)C(F)(F)C(F)(F)F | 0.604 ± 0.042 |
| Cc1ccccc1 [toluene] + CCCCCC[n+]1ccn(C)c1.FC(F)(F)C(F)(F)[P-](F)(F)(F)(C(F)(F)C(F)(F)F)C(F)(F)C(F)(F)F | 0.753 ± 0.05 |
| ClC(Cl)Cl [trichloromethane] + CCCCCC[n+]1ccn(C)c1.FC(F)(F)C(F)(F)[P-](F)(F)(F)(C(F)(F)C(F)(F)F)C(F)(F)C(F)(F)F | 1.05 ± 0.066 |

Same assay, conditions: 362.65 K; 101 kPa; Liquid; Chromatography; x1 = 0

| Compound | activity coefficient |
| --- | --- |
| CCCCCCCC [octane] + CCCCn1cc[n+](C)c1.O=S(=O)([N-]S(=O)(=O)C(F)(F)C(F)(F)F)C(F)(F)C(F)(F)F | 15.5 ± 1.1 |
| CCCC(C)=O [pentan-2-one] + CCCCn1cc[n+](C)c1.O=S(=O)([N-]S(=O)(=O)C(F)(F)C(F)(F)F)C(F)(F)C(F)(F)F | 0.701 ± 0.047 |
| CCC(=O)CC [pentan-3-one] + CCCCn1cc[n+](C)c1.O=S(=O)([N-]S(=O)(=O)C(F)(F)C(F)(F)F)C(F)(F)C(F)(F)F | 0.695 ± 0.047 |
| CCCO [propan-1-ol] + CCCCn1cc[n+](C)c1.O=S(=O)([N-]S(=O)(=O)C(F)(F)C(F)(F)F)C(F)(F)C(F)(F)F | 1.35 ± 0.088 |
| CC(C)O [propan-2-ol] + CCCCn1cc[n+](C)c1.O=S(=O)([N-]S(=O)(=O)C(F)(F)C(F)(F)F)C(F)(F)C(F)(F)F | 1.25 ± 0.08 |
| CCC=O [propanal] + CCCCn1cc[n+](C)c1.O=S(=O)([N-]S(=O)(=O)C(F)(F)C(F)(F)F)C(F)(F)C(F)(F)F | 0.522 ± 0.039 |
| c1ccncc1 [pyridine] + CCCCn1cc[n+](C)c1.O=S(=O)([N-]S(=O)(=O)C(F)(F)C(F)(F)F)C(F)(F)C(F)(F)F | 0.45 ± 0.036 |
| ClC(Cl)(Cl)Cl [tetrachloromethane] + CCCCn1cc[n+](C)c1.O=S(=O)([N-]S(=O)(=O)C(F)(F)C(F)(F)F)C(F)(F)C(F)(F)F | 2.33 ± 0.16 |
| CCCCCCCCCCCCCC [tetradecane] + CCCCn1cc[n+](C)c1.O=S(=O)([N-]S(=O)(=O)C(F)(F)C(F)(F)F)C(F)(F)C(F)(F)F | 91.5 ± 6.3 |
| c1ccsc1 [thiophene] + CCCCn1cc[n+](C)c1.O=S(=O)([N-]S(=O)(=O)C(F)(F)C(F)(F)F)C(F)(F)C(F)(F)F | 0.981 ± 0.062 |
| Cc1ccccc1 [toluene] + CCCCn1cc[n+](C)c1.O=S(=O)([N-]S(=O)(=O)C(F)(F)C(F)(F)F)C(F)(F)C(F)(F)F | 1.46 ± 0.096 |
| ClC(Cl)Cl [trichloromethane] + CCCCn1cc[n+](C)c1.O=S(=O)([N-]S(=O)(=O)C(F)(F)C(F)(F)F)C(F)(F)C(F)(F)F | 0.79 ± 0.051 |
